How the values were obtained:
[1] = biological target: T1, Cathepsin K (Homo sapiens, UniProt P43235); assay: Cathepsin K inhibition assay (fluorogenic peptide substrate); selectivity ratio vs cathepsin S; type: biochemical; conditions: ratio of cathepsin K inhibition constant to cathepsin S inhibition constant; Table II
T1 sequence (P43235 115-329): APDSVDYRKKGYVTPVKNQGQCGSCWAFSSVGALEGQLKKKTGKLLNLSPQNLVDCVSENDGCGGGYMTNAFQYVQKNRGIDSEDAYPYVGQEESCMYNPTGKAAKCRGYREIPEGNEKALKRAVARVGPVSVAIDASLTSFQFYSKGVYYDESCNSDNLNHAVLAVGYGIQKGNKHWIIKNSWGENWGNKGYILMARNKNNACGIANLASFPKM
How it was run: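 Fluorogenic kinetic assay, started with acetyl-Lys-His-Pro-Lys-aminocarbamoylcoumarin at 40 μM final, hydrolysis followed at ex 380/em 450 nm. Apparent inhibition constants from progress curves, converted to competitive inhibition constants. Selectivity expressed as isozyme inhibition constant divided by cathepsin S inhibition constant.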

[2] = biological target: Cathepsin S (Homo sapiens, UniProt P25774); assay: Cathepsin S inhibition assay (fluorogenic peptide substrate); type: biochemical; conditions: Table II, compounds of Formula I; read-out: Ki Cat. S
Sequence of Cathepsin S (P25774 115-331, species assumed): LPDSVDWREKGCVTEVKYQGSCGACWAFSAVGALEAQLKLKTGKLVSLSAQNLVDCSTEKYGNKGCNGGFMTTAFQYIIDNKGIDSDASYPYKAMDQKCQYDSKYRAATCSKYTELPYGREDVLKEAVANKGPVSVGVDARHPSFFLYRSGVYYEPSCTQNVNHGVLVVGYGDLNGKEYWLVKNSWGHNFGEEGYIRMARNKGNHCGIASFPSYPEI
How it was run: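 Ki values come from nonlinear fitting of inhibited hydrolysis rates, taking free and total inhibitor concentrations as equal. Rates measured as rising fluorescence at 380/450 nm after reaction start with 50 μM final acetyl-HPVK-aminocarbamoylcoumarin.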

Row | Structure (SMILES) | Selectivity for Cat. S over Cat. K [1] | Ki [2]
1 | COc1ccc(NCCNC(=O)[C@H](Cc2ccc(-c3cc(Cl)ccc3Cl)cc2)NC(=O)c2cccc(C)c2)cc1 [Compound 286, (S)-N-{2-(2′,5′-Dichloro-biphenyl-4-yl)-1-[2-(4-methoxy-phenylamino)-ethylcarbamoyl]-ethyl}-3-methyl-benzamide] | + (+, >10) | < 10000 nM
2 | O=C(N[C@@H](CC1CCCCC1)C(=O)NCCNc1ccc(OC(F)(F)F)cc1)c1onc2ccccc12 [Compound 59, Benzo[c]isoxazole-3-carboxylic acid (S)-{2-cyclohexyl-1-[2-(4-trifluoromethoxy-phenylamino)-ethylcarbamoyl]-ethyl}-amide] | ++ (++, >100) | < 1000 nM
3 | COc1cc(OC)nc(-c2ccc(C(=O)N[C@@H](CC3CCCCC3)C(=O)NCCNc3ccc(OC(F)(F)F)cc3)cc2)n1 [Compound 80, N-(S)-{2-cyclohexyl-1-[2-(4-trifluoromethoxy-phenylamino)-ethylcarbamoyl]-ethyl}-4-(4,6-dimethoxy-pyrimidin-2-yl)-benzamide] | +++ (+++, >1000) | < 1000 nM
4 | O=C(N[C@@H](CC1CCCCC1)C(=O)NCCNc1ccc(OC(F)(F)F)cc1)c1ccc(-c2ccccc2Cl)cc1 [Compound 194, (S)-2′-Chloro-biphenyl-4-carboxylic acid {2-cyclohexyl-1-[2-(4-trifluoromethoxy-phenylamino)-ethylcarbamoyl]-ethyl}-amide] | + (+, >10) | < 1000 nM
5 | COc1ccc(NCCNC(=O)[C@H](Cc2ccccc2)NC(=O)c2cnn(-c3ccc(Cl)cc3)c2C(F)(F)F)cc1 [Compound 44, (S)-1-(4-Chloro-phenyl)-5-trifluoromethyl-1H-pyrazole-4-carboxylic acid {1-[2-(4-methoxy-phenylamino)-ethylcarbamoyl]-2-phenyl-ethyl}-amide] | ++ (++, >100) | < 1000 nM
6 | COc1ccc(NCCNC(=O)[C@H](CCC2CCCCC2)NC(=O)c2cccc(-c3ccccc3)c2)cc1 [Compound 144, (S)-Biphenyl-3-carboxylic acid {3-cyclohexyl-1-[2-(4-methoxy-phenylamino)-ethylcarbamoyl]-propyl}-amide] | +++ (+++, >1000) | < 1000 nM
7 | COc1ccc(NCCNC(=O)[C@H](Cc2ccc(Oc3ccc(OC)cc3)cc2)NC(=O)c2cccc(C)c2)cc1 [Compound 328, (S)-N-{2-[4-(4-Methoxy-phenoxy)-phenyl]-1-[2-(4-methoxy-phenylamino)-ethylcarbamoyl]-ethyl}-3-methyl-benzamide] | ++ (++, >100) | < 1000 nM
8 | COc1ccc(NCCNC(=O)C(NC(=O)c2cccc(C)c2)c2ccc(OCc3ccccc3)cc2)cc1 (centres unmarked) [Compound 217, N-{(4-Benzyloxy-phenyl)-[2-(4-methoxy-phenylamino)-ethylcarbamoyl]-methyl}-3-methyl-benzamide] | +++ (+++, >1000) | < 1000 nM
9 | COc1ccc(NCCNC(=O)[C@H](Cc2ccc(-c3ccc(O)cc3)cc2)NC(=O)c2cccc(C)c2)cc1 [Compound 289, (S)-N-{2-(4′-Hydroxy-biphenyl-4-yl)-1-[2-(4-methoxy-phenylamino)-ethylcarbamoyl]-ethyl}-3-methyl-benzamide] | ++ (++, >100) | < 1000 nM
10 | O=C(N[C@@H](CC1CCCCC1)C(=O)NCCNc1ccc(OC(F)(F)F)cc1)c1ccc(-c2ccc(C(F)(F)F)cc2)s1 [Compound 205, (S)-5-(4-Trifluoromethyl-phenyl)-thiophene-2-carboxylic acid {2-cyclohexyl-1-[2-(4-trifluoromethoxy-phenylamino)-ethylcarbamoyl]-ethyl}-amide] | ++ (++, >100) | < 100 nM
11 | COc1ccc(NCCNC(=O)[C@H](Cc2ccc(Oc3ccccc3)cc2)NC(=O)c2cccc(C)c2)cc1 [Compound 327, (S)-N-[1-[2-(4-Methoxy-phenylamino)-ethylcarbamoyl]-2-(4-phenoxy-phenyl)-ethyl]-3-methyl-benzamide] | ++ (++, >100) | < 1000 nM
12 | O=C(N[C@@H](CC1CCCCC1)C(=O)NCCNc1ccc(OC(F)(F)F)cc1)c1ccc(-c2cccc(F)c2)s1 [Compound 36, 5-(3-Fluoro-phenyl)-thiophene-2-carboxylic acid (S)-{2-cyclohexyl-1-[2-(4-trifluoromethoxy-phenylamino)-ethylcarbamoyl]-ethyl}-amide] | ++ (++, >100) | < 100 nM
13 | O=C(N[C@@H](CC1CCCCC1)C(=O)NCCNc1ccccc1C(=O)O)c1ccc(-c2cccc(C(F)(F)F)c2)o1 [Compound 12, 2-[2-(3-Cyclohexyl-2-(S)-{[5-(3-trifluoromethyl-phenyl)-furan-2-carbonyl]-amino}-propionylamino)-ethylamino]-benzoic acid] | + (+, >10) | < 100 nM

Second part, the compound after the results:

Row | Selectivity for Cat. S over Cat. K [1] | Ki [2] | Structure (SMILES)
14 | ++ (++, >100) | < 100 nM | COc1ccc(CC(=O)N[C@@H](CC2CCCCC2)C(=O)NCCNc2ccc(F)cc2)cc1 [Compound 301, 3-Cyclohexyl-N-[2-(4-fluoro-phenylamino)-ethyl]-2-(S)-[2-(4-methoxy-phenyl)-acetylamino]-propionamide]
15 | ++ (++, >100) | < 100 nM | O=C(N[C@@H](CC1CCCCC1)C(=O)NCCNc1ccc(F)cc1)c1ccco1 [Compound 264, Furan-2-carboxylic acid (S)-{2-cyclohexyl-1-[2-(4-fluoro-phenylamino)-ethylcarbamoyl]-ethyl}-amide]
16 | ++ (++, >100) | < 100 nM | COc1ccc(NCCNC(=O)[C@H](CC2CCCCC2)NC(=O)c2ccc(Br)o2)cc1 [Compound 177, (S)-5-Bromo-furan-2-carboxylic acid {2-cyclohexyl-1-[2-(4-methoxy-phenylamino)-ethylcarbamoyl]-ethyl}-amide]
17 | ++ (++, >100) | < 100 nM | O=C(N[C@@H](CC1CCCCC1)C(=O)NCCNc1ccc(OC(F)(F)F)cc1)c1ccc(-c2ccccc2)o1 [Compound 65, 5-Phenyl-furan-2-carboxylic acid (S)-{2-cyclohexyl-1-[2-(4-trifluoromethoxy-phenylamino)-ethylcarbamoyl]-ethyl}-amide]
18 | +++ (+++, >1000) | < 100 nM | COc1ccc(NCCNC(=O)[C@H](CC2CCCCC2)NC(=O)c2cc(C)ccc2Cl)cc1 [Compound 148, (S)-2-Chloro-N-{2-cyclohexyl-1-[2-(4-methoxy-phenylamino)-ethylcarbamoyl]-ethyl}-5-methyl-benzamide]
19 | +++ (+++, >1000) | < 100 nM | COc1ccc(NCCNC(=O)[C@H](Cc2c[nH]c3ccccc23)NC(=O)c2cccc(C)c2)cc1 [Compound 257, (S)-N-{2-(1H-Indol-3-yl)-1-[2-(4-methoxy-phenylamino)-ethylcarbamoyl]-ethyl}-3-methyl-benzamide]
20 | +++ (+++, >1000) | < 100 nM | COc1ccc(NCCNC(=O)[C@H](Cc2ccc(OCc3c(Cl)cccc3Cl)cc2)NC(=O)c2cccc(C)c2)cc1 [Compound 248, (S)-N-{2-[4-(2,6-Dichloro-benzyloxy)-phenyl]-1-[2-(4-methoxy-phenylamino)-ethylcarbamoyl]-ethyl}-3-methyl-benzamide]
21 | ++ (++, >100) | < 100 nM | COc1ccc(NCCNC(=O)[C@H](CC2CCCCC2)NC(=O)c2ccc(-c3cc(C(F)(F)F)ccc3Cl)o2)cc1 [Compound 193, (S)-5-(2-Chloro-5-trifluoromethyl-phenyl)-furan-2-carboxylic acid {2-cyclohexyl-1-[2-(4-methoxy-phenylamino)-ethylcarbamoyl]-ethyl}-amide]
22 | +++ (+++, >1000) | < 100 nM | COc1ccc(NCCNC(=O)[C@H](CCC2CCCCC2)NC(=O)c2cccc(OC(F)(F)F)c2)cc1 [Compound 138, (S)-N-{3-Cyclohexyl-1-[2-(4-methoxy-phenylamino)-ethylcarbamoyl]-propyl}-3-trifluoromethoxy-benzamide]
23 | + (+, >10) | < 100 nM | COc1ccc(NCCNC(=O)[C@H](CC2CCCCC2)NC(=O)c2ccc(-c3ccccc3OC)cc2)cc1 [Compound 174, (S)-2′-Methoxy-biphenyl-4-carboxylic acid {2-cyclohexyl-1-[2-(4-methoxy-phenylamino)-ethylcarbamoyl]-ethyl}-amide]
24 | +++ (+++, >1000) | < 100 nM | COc1ccc(NCCNC(=O)[C@H](CC2CCCCC2)NC(=O)c2cc(F)cc(C(F)(F)F)c2)cc1 [Compound 165, (S)-N-{2-Cyclohexyl-1-[2-(4-methoxy-phenylamino)-ethylcarbamoyl]-ethyl}-3-fluoro-5-trifluoromethyl-benzamide]
25 | +++ (+++, >1000) | < 100 nM | COc1ccc(NCCNC(=O)[C@H](Cc2ccc(Cl)cc2Cl)NC(=O)c2cccc(C)c2)cc1 [Compound 229, (S)-N-{2-(2,4-Dichloro-phenyl)-1-[2-(4-methoxy-phenylamino)-ethylcarbamoyl]-ethyl}-3-methyl-benzamide]

— patent publication US7109243B2 (IRM LLC, priority 2003, dated 2006)
